Experimental data reported in US20250313572A1, “MACROCYCLIC MCL-1 INHIBITORS AND METHODS OF USE” (AbbVie Inc., priority 2017, published 2025).
Read-outs that look alike come from different tables or passages of the source.

Columns and labels:
[1] = test system: NCI-H929 human multiple myeloma tumor cell line; experiment: NCI-H929 cell viability assay (CellTiter-Glo, 24 hours); format: cell-based; conditions: Homo sapiens, NCI-H929, 24 h, read-out: H929 Viability IC50 (μM, 10% FBS), 10% FBS, 24 hours of compound treatment
[2] = test system: AMO-1 human multiple myeloma tumor cell line; experiment: AMO-1 cell viability assay (CellTiter-Glo, 24 hours); format: cell-based; conditions: Homo sapiens, AMO1, 24 h, read-out: AMO-1 Viability IC50 (μM, 10% FBS), 10% FBS, 24 hours of compound treatment
Method: Each concentration was tested in duplicate at least 3 independent times. A luminescent signal proportional to the number of viable cells following 24 hours of compound treatment was determined using the CellTiter-Glo® Luminescent Cell Viability Assay according to the manufacturer's recommendations (Promega Corp., Madison, WI). The plates were read in a Perkin Elmer Envision using a Luminescence protocol. To generate dose response curves the data is normalized to percent viability by setting the averages of the staurosporine (10 μM) and DMSO only control wells to 0% and 100% viability respectively.

GST-MCL-1 = GST-MCL-1 (Homo sapiens, UniProt Q07820); experiment: TR-FRET MCL-1 binding assay (competition with probe F-Bak)
How it was run: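 Displacement of F-Bak from GST-MCL-1 is detected by time-resolved FRET with a Tb-labelled anti-GST antibody, with excitation 340/35 nm and emission 520/525 and 495/510 nm, after 2 hours at room temperature. Compounds were titrated in 11 three-fold steps starting at 25 μM final, in buffer alone or in 10% HS.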

[3] = MCL-1 Binding Ki (nM, 10% HS), in the presence of 10% HS (human serum)
[4] = without HS, read-out: MCL-1 Binding Ki

GST-MCL-1, sequence (Q07820 whole entry): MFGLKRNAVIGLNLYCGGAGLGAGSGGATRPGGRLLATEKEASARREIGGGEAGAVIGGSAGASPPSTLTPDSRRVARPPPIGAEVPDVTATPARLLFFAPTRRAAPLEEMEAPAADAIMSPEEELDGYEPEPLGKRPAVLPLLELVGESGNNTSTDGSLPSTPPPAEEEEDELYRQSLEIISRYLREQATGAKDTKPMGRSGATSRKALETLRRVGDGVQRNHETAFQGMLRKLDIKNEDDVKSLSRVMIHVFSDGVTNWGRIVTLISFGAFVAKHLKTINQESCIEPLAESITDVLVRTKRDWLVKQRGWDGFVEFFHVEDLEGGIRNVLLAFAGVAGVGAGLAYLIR

Compound COCCOCCOCCOCC1(C)CC=C(c2nccc(COc3ccc4cc3C[C@H](C(=O)O)Oc3ncnc5sc(-c6ccc(F)cc6)c(c35)-c3c(C)c(Cl)c(c(Cl)c3C)O[C@H](CN3CCN(C)CC3)CO4)n2)CC1 (single isomer, unassigned) [Example 112, (7R,16R)-19,23-dichloro-1-(4-fluorophenyl)-20,22-dimethyl-16-[(4-methylpiperazin-1-yl)methyl]-10-({2-[(4R*)-4-methyl-4-(2,5,8,11-tetraoxadodecan-1-yl)cyclohex-1-en-1-yl]pyrimidin-4-yl}methoxy)-7,8,15,16-tetrahydro-18,21-etheno-13,9-(metheno)-6,14,17-trioxa-2-thia-3,5-diazacyclononadeca[1,2,3-cd]indene-7-carboxylic Acid] has an IC50 [1] of 0.000283 µM, an IC50 [2] of 132 pM and a Ki (GST-MCL-1; [3]) of 0.217 nM. For the same compound, the Ki (GST-MCL-1; [4]) was 0.012 nM.

With Cc1c(Cl)c2c(Cl)c(C)c1-c1c(-c3ccc(F)cc3)sc3ncnc(c13)O[C@@H](C(=O)O)Cc1cc(ccc1OCc1ccnc(N3CCC(C)(N4CCOCC4)CC3)n1)OC[C@@H](CN1CCN(C)CC1)O2 [Example 144, (7R,16R)-19,23-dichloro-1-(4-fluorophenyl)-20,22-dimethyl-10-({2-[4-methyl-4-(morpholin-4-yl)piperidin-1-yl]pyrimidin-4-yl}methoxy)-16-[(4-methylpiperazin-1-yl)methyl]-7,8,15,16-tetrahydro-18,21-etheno-13,9-(metheno)-6,14,17-trioxa-2-thia-3,5-diazacyclononadeca[1,2,3-cd]indene-7-carboxylic Acid] the IC50 [1] was 0.0077 µM, the IC50 [2] was 1780 pM and the Ki (GST-MCL-1; [3]) was > 444 nM. The Ki (GST-MCL-1; [4]) was 10.9 nM.

In the case of COCCOCCOCCOC[C@]1(F)CC[C@@H](c2nccc(COc3ccc4cc3C[C@H](C(=O)O)Oc3ncnc5sc(-c6ccc(F)cc6)c(c35)-c3c(C)c(Cl)c(c(Cl)c3C)O[C@H](CN3CCN(C)CC3)CO4)n2)CC1 [Example 118, (7R,16R)-19,23-dichloro-1-(4-fluorophenyl)-10-({2-[(1s,4s)-4-fluoro-4-(2,5,8,11-tetraoxadodecan-1-yl)cyclohexyl]pyrimidin-4-yl}methoxy)-20,22-dimethyl-16-[(4-methylpiperazin-1-yl)methyl]-7,8,15,16-tetrahydro-18,21-etheno-13,9-(metheno)-6,14,17-trioxa-2-thia-3,5-diazacyclononadeca[1,2,3-cd]indene-7-carboxylic Acid], the IC50 [1] is reported as 0.000396 µM, the IC50 [2] is reported as 247 pM and the Ki (GST-MCL-1; [3]) is reported as 27.3 nM. For the same compound, the Ki (GST-MCL-1; [4]) was 1.99 nM.

Compound COCCOCCOCCOCCOCCOCCO[C@H]1CC[C@H](c2nccc(COc3ccc4cc3C[C@H](C(=O)O)Oc3ncnc5sc(-c6ccc(F)cc6)c(c35)-c3c(C)c(Cl)c(c(Cl)c3C)O[C@H](CN3CCN(C)CC3)CO4)n2)CC1 [Example 67, (7R,16R)-19,23-dichloro-1-(4-fluorophenyl)-10-[(2-{(1r,4r)-4-[(2,5,8,11,14,17-hexaoxanonadecan-19-yl)oxy]cyclohexyl}pyrimidin-4-yl)methoxy]-20,22-dimethyl-16-[(4-methylpiperazin-1-yl)methyl]-7,8,15,16-tetrahydro-18,21-etheno-13,9-(metheno)-6,14,17-trioxa-2-thia-3,5-diazacyclononadeca[1,2,3-cd]indene-7-carboxylic Acid] has an IC50 [1] of 0.00176 µM, an IC50 [2] of 1100 pM and a Ki (GST-MCL-1; [3]) of 0.073 nM. The Ki (GST-MCL-1; [4]) was 0.016 nM.

With Cc1c(Cl)c2c(Cl)c(C)c1-c1c(-c3ccc(F)cc3)sc3ncnc(c13)O[C@@H](C(=O)O)Cc1cc(ccc1OCc1ccnc(-c3cccc(CP(C)(C)=O)c3)n1)OC[C@@H](CN1CCN(C)CC1)O2 [Example 51, (7R,16R)-19,23-dichloro-10-[(2-{3-[(dimethylphosphoryl)methyl]phenyl}pyrimidin-4-yl)methoxy]-1-(4-fluorophenyl)-20,22-dimethyl-16-[(4-methylpiperazin-1-yl)methyl]-7,8,15,16-tetrahydro-18,21-etheno-13,9-(metheno)-6,14,17-trioxa-2-thia-3,5-diazacyclononadeca[1,2,3-cd]indene-7-carboxylic Acid] the IC50 [1] was 0.00671 µM, the IC50 [2] was 3400 pM and the Ki (GST-MCL-1; [3]) was 0.076 nM. The Ki (GST-MCL-1; [4]) was 0.011 nM.

Cc1c(Cl)c2c(Cl)c(C)c1-c1c(-c3ccc(F)cc3)sc3ncnc(c13)O[C@@H](C(=O)O)Cc1cc(ccc1OCc1ccnc(-c3ccc(CCN4CCOCC4)cc3)n1)OC[C@@H](CN1CCN(C)CC1)O2 [Example 142, (7R,16R)-19,23-dichloro-1-(4-fluorophenyl)-20,22-dimethyl-16-[(4-methylpiperazin-1-yl)methyl]-10-[(2-{4-[2-(morpholin-4-yl)ethyl]phenyl}pyrimidin-4-yl)methoxy]-7,8,15,16-tetrahydro-18,21-etheno-13,9-(metheno)-6,14,17-trioxa-2-thia-3,5-diazacyclononadeca[1,2,3-cd]indene-7-carboxylic Acid] was tested, and the IC50 [1] was 0.000156 µM, the IC50 [2] was 48.8 pM and the Ki (GST-MCL-1; [3]) was 0.776 nM. It also gave a Ki (GST-MCL-1; [4]) of 0.185 nM.

With Cc1c(Cl)c2c(Cl)c(C)c1-c1c(-c3ccc(F)cc3)sc3ncnc(c13)O[C@@H](C(=O)O)Cc1cc(ccc1OCc1ccnc(-c3ccc(OC[C@H]4CN(C)CCCO4)cc3)n1)OC[C@@H](CN1CCN(C)CC1)O2 [Example 175, (7R,16R)-19,23-dichloro-1-(4-fluorophenyl)-20,22-dimethyl-10-{[2-(4-{[(2R)-4-methyl-1,4-oxazepan-2-yl]methoxy}phenyl)pyrimidin-4-yl]methoxy}-16-[(4-methylpiperazin-1-yl)methyl]-7,8,15,16-tetrahydro-18,21-etheno-13,9-(metheno)-6,14,17-trioxa-2-thia-3,5-diazacyclononadeca[1,2,3-cd]indene-7-carboxylic Acid] the IC50 [1] was 0.00573 µM, the IC50 [2] was 1640 pM and the Ki (GST-MCL-1; [3]) was 0.122 nM. For the same compound, the Ki (GST-MCL-1; [4]) was < 0.01 nM.

COCCOCCOCCOCCOCCOCCOCCOCCOCCOCCOCCNC(=O)c1ccc(-c2nccc(COc3ccc4cc3C[C@H](C(=O)O)Oc3ncnc5sc(-c6ccc(F)cc6)c(c35)-c3c(C)c(Cl)c(c(Cl)c3C)O[C@H](CN3CCN(C)CC3)CO4)n2)cc1 [Example 47, (7R,16R)-19,23-dichloro-1-(4-fluorophenyl)-20,22-dimethyl-16-[(4-methylpiperazin-1-yl)methyl]-10-[(2-{4-[(2,5,8,11,14,17,20,23,26,29,32-undecaoxatetratriacontan-34-yl)carbamoyl]phenyl}pyrimidin-4-yl)methoxy]-7,8,15,6-tetrahydro-18,21-etheno-13,9-(metheno)-6,14,17-trioxa-2-thia-3,5-diazacyclononadeca[1,2,3-cd]indene-7-carboxylic Acid] was tested, and the IC50 [1] was 0.0205 µM, the IC50 [2] was 18200 pM and the Ki (GST-MCL-1; [3]) was 3.12 nM. The Ki (GST-MCL-1; [4]) was 0.018 nM.

In the case of COCCOCCOC[C@H]1CC[C@H](c2nccc(COc3ccc4cc3C[C@H](C(=O)O)Oc3ncnc5sc(-c6ccc(F)cc6)c(c35)-c3c(C)c(Cl)c(c(Cl)c3C)O[C@H](CN3CCN(C)CC3)CO4)n2)CC1 [Example 160, (7R,16R)-19,23-dichloro-1-(4-fluorophenyl)-10-({2-[(1r,4r)-4-{[2-(2-methoxyethoxy)ethoxy]methyl}cyclohexyl]pyrimidin-4-yl}methoxy)-20,22-dimethyl-16-[(4-methylpiperazin-1-yl)methyl]-7,8,15,16-tetrahydro-18,21-etheno-13,9-(metheno)-6,14,17-trioxa-2-thia-3,5-diazacyclononadeca[1,2,3-cd]indene-7-carboxylic Acid], the IC50 [1] is reported as 0.000206 µM, the IC50 [2] is reported as 116 pM and the Ki (GST-MCL-1; [3]) is reported as 0.083 nM. For the same compound, the Ki (GST-MCL-1; [4]) was 0.005 nM.

Work on COCCOCCOCCOCCOCCOCC1(c2nccc(COc3ccc4cc3C[C@H](C(=O)O)Oc3ncnc5sc(-c6ccc(F)cc6)c(c35)-c3c(C)c(Cl)c(c(Cl)c3C)O[C@H](CN3CCN(C)CC3)CO4)n2)CCC1 [Example 59, (7R,16R)-19,23-dichloro-1-(4-fluorophenyl)-10-({2-[1-(2,5,8,11,14,17-hexaoxaoctadecan-1-yl)cyclobutyl]pyrimidin-4-yl}methoxy)-20,22-dimethyl-16-[(4-methylpiperazin-1-yl)methyl]-7,8,15,16-tetrahydro-18,21-etheno-13,9-(metheno)-6,14,17-trioxa-2-thia-3,5-diazacyclononadeca[1,2,3-cd]indene-7-carboxylic Acid] yielded an IC50 [1] of 0.000848 µM, an IC50 [2] of 686 pM and a Ki (GST-MCL-1; [3]) of 0.122 nM. The Ki (GST-MCL-1; [4]) was 0.047 nM.

COCCOCCOCCOCCOCC1(c2nccc(COc3ccc4cc3C[C@H](C(=O)O)Oc3ncnc5sc(-c6ccc(F)cc6)c(c35)-c3c(C)c(Cl)c(c(Cl)c3C)O[C@H](CN3CCN(C)CC3)CO4)n2)CCC1 [Example 58, (7R,16R)-19,23-dichloro-1-(4-fluorophenyl)-20,22-dimethyl-16-[(4-methylpiperazin-1-yl)methyl]-10-({2-[1-(2,5,8,11,14-pentaoxapentadecan-1-yl)cyclobutyl]pyrimidin-4-yl}methoxy)-7,8,15,16-tetrahydro-18,21-etheno-13,9-(metheno)-6,14,17-trioxa-2-thia-3,5-diazacyclononadeca[1,2,3-cd]indene-7-carboxylic Acid] gave an IC50 [1] of 0.00056 µM, an IC50 [2] of 378 pM and a Ki (GST-MCL-1; [3]) of 0.161 nM. The Ki (GST-MCL-1; [4]) was 0.05 nM.

CO[C@H]1O[C@H](COc2ccc(-c3nccc(COc4ccc5cc4C[C@H](C(=O)O)Oc4ncnc6sc(-c7ccc(F)cc7)c(c46)-c4ccc(c(Cl)c4C)CN(CCN4CCN(C)CC4)C5)n3)cc2)[C@@H](OC)[C@H](OC)[C@@H]1OC [Example 11, methyl 6-O-{4-[4-({[(7R,20S)-7-carboxy-18-chloro-1-(4-fluorophenyl)-19-methyl-15-[2-(4-methylpiperazin-1-yl)ethyl]-7,8,15,16-tetrahydro-14H-17,20-etheno-13,9-(metheno)-6-oxa-2-thia-3,5,15-triazacyclooctadeca[1,2,3-cd]inden-10-yl]oxy}methyl)pyrimidin-2-yl]phenyl}-2,3,4-tri-O-methyl-a-D-mannopyranoside] was tested, and the IC50 [1] was 0.514 µM, the IC50 [2] was 363000 pM and the Ki (GST-MCL-1; [3]) was 2.34 nM. It also gave a Ki (GST-MCL-1; [4]) of 0.374 nM.
